# Reference: paper PMC3946379 (Archives of biochemistry and biophysics, 2013)
# Target: Aspartate aminotransferase (AAT) (Escherichia coli, UniProt P00509)
# Assay: N-15 NMR of crystalline enzyme
# Format: binding
# Conditions: PLP form, low pH; closed conformation; own earlier work reviewed
# Aspartate aminotransferase (AAT), sequence (P00509 whole entry): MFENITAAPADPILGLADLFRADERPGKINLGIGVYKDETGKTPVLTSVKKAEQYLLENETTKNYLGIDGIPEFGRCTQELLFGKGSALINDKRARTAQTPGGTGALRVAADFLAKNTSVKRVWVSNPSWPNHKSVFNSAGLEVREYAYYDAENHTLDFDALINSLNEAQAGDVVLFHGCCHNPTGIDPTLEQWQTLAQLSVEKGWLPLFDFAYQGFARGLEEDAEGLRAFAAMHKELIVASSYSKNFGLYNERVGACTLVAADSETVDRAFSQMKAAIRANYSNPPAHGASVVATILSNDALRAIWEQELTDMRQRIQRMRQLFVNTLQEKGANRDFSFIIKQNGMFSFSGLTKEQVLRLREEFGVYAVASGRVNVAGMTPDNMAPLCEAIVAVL
smiles,measurement,value
O=C(O)/C=C\C(=O)O [maleate],N-15 NMR of crystalline enzyme,In crystalline samples of both the unliganded and maleate-liganded enzyme forms at low pH
